Test results published in ChEMBL document CHEMBL3885881, “DrugMatrix”.

Organism: Rattus norvegicus
Assay: DrugMatrix - Regimen: Daily Repeat
Type: toxicity, organism-based, Sprague-Dawley
Parameters: regimen Daily Repeat, gender Male, age 6-8 weeks
Conditions: in vivo, po, route oral GAVAGE, vehicle .5 % CMC; for ABSOLUTE BASOPHIL / ABSOLUTE EOSINOPHIL / ABSOLUTE LYMPHOCYTE / ABSOLUTE MONOCYTE / ABSOLUTE SEGMENTED NEUTROPHIL / BASOPHIL / EOSINOPHIL / ERYTHROCYTE COUNT / HEMATOCRIT / HEMOGLOBIN / LEUKOCYTE COUNT / LYMPHOCYTE / MEAN CORPUSCULAR HEMOGLOBIN / MEAN CORPUSCULAR HEMOGLOBIN CONCENTRATION / MEAN CORPUSCULAR VOLUME / MONOCYTE / NEUTROPHIL / NUCLEATED RED BLOOD CELLS / PLATELET COUNT: tissue Blood; for ALANINE AMINOTRANSFERASE / ALBUMIN / ALKALINE PHOSPHATASE / ASPARTATE AMINOTRANSFERASE / BLOOD UREA NITROGEN / CARBON DIOXIDE / CHLORIDE / CHOLESTEROL / CREATINE PHOSPHOKINASE / CREATININE / GLUCOSE / LACTATE DEHYDROGENASE / LIPASE / PHOSPHORUS / POTASSIUM / SODIUM / TOTAL BILIRUBIN / TOTAL PROTEIN / URIC ACID: tissue Plasma
[1] = 60 mg/kg, 72 h, dose level Low, time 3 day
[2] = 60 mg/kg, 120 h, dose level Low, time 5 day
[3] = 435 mg/kg, 72 h, dose level High, time 3 day
[4] = 435 mg/kg, 120 h, dose level High, time 5 day

SMILES: CCCCCCCCNC(C)C(O)c1ccc(SC(C)C)cc1 (configuration not stated) [SULOCTIDIL]
- ABSOLUTE BASOPHIL [1]: 0 CELLS/uL
- ABSOLUTE EOSINOPHIL [1]: 0 CELLS/uL
- ABSOLUTE LYMPHOCYTE [1]: 12874.67 CELLS/uL
- ABSOLUTE MONOCYTE [1]: 326.33 CELLS/uL
- ABSOLUTE SEGMENTED NEUTROPHIL [1]: 2365.67 CELLS/uL
- BASOPHIL [1]: 0%
- EOSINOPHIL [1]: 0%
- ERYTHROCYTE COUNT [1]: 5.66 x10E6/uL
- HEMATOCRIT [1]: 34.83%
- HEMOGLOBIN [1]: 13.2 G/DL
- LEUKOCYTE COUNT [1]: 15.57 x10E3/uL
- LYMPHOCYTE [1]: 81.33%
- MEAN CORPUSCULAR HEMOGLOBIN [1]: 23.33 pg
- MEAN CORPUSCULAR HEMOGLOBIN CONCENTRATION [1]: 37.93 G/DL
- MEAN CORPUSCULAR VOLUME [1]: 61.57 fL
- MONOCYTE [1]: 2.33%
- NEUTROPHIL [1]: 16.33%
- NUCLEATED RED BLOOD CELLS [1]: 0 /100WBC
- PLATELET COUNT [1]: 1204 x10E3/uL
- ALANINE AMINOTRANSFERASE [1]: 56.67 u/L
- ALBUMIN [1]: 4.23 G/DL
- ALKALINE PHOSPHATASE [1]: 425.33 u/L
- ASPARTATE AMINOTRANSFERASE [1]: 91.67 u/L
- BLOOD UREA NITROGEN [1]: 18 mg/dL
- CARBON DIOXIDE [1]: 25 mmol/L
- CHLORIDE [1]: 101.33 MEQ/L
- CHOLESTEROL [1]: 80 mg/dL
- CREATINE PHOSPHOKINASE [1]: 410.67 u/L
- CREATININE [1]: 0.23 mg/dL
- GLUCOSE [1]: 140.33 mg/dL
- LACTATE DEHYDROGENASE [1]: 416.33 u/L
- LIPASE [1]: 10.33 u/L
- PHOSPHORUS [1]: 14.3 mg/dL
- POTASSIUM [1]: 5.93 MEQ/L
- SODIUM [1]: 145.47 MEQ/L
- TOTAL BILIRUBIN [1]: 0.17 mg/dL
- TOTAL PROTEIN [1]: 6.27 G/DL
- URIC ACID [1]: 1.4 mg/dL
- ABSOLUTE BASOPHIL [2]: 0 CELLS/uL
- ABSOLUTE EOSINOPHIL [2]: 0 CELLS/uL
- ABSOLUTE LYMPHOCYTE [2]: 10938.33 CELLS/uL
- ABSOLUTE MONOCYTE [2]: 387.67 CELLS/uL
- ABSOLUTE SEGMENTED NEUTROPHIL [2]: 1740.67 CELLS/uL
- BASOPHIL [2]: 0%
- EOSINOPHIL [2]: 0%
- ERYTHROCYTE COUNT [2]: 5.48 x10E6/uL
- HEMATOCRIT [2]: 33.37%
- HEMOGLOBIN [2]: 13.03 G/DL
- LEUKOCYTE COUNT [2]: 13.07 x10E3/uL
- LYMPHOCYTE [2]: 83.67%
- MEAN CORPUSCULAR HEMOGLOBIN [2]: 23.83 pg
- MEAN CORPUSCULAR HEMOGLOBIN CONCENTRATION [2]: 39.1 G/DL
- MEAN CORPUSCULAR VOLUME [2]: 61.07 fL
- MONOCYTE [2]: 3%
- NEUTROPHIL [2]: 13.33%
- NUCLEATED RED BLOOD CELLS [2]: 0 /100WBC
- PLATELET COUNT [2]: 1209.67 x10E3/uL
- ALANINE AMINOTRANSFERASE [2]: 49.33 u/L
- ALBUMIN [2]: 4.03 G/DL
- ALKALINE PHOSPHATASE [2]: 405.67 u/L
- ASPARTATE AMINOTRANSFERASE [2]: 76 u/L
- BLOOD UREA NITROGEN [2]: 16.67 mg/dL
- CARBON DIOXIDE [2]: 29.33 mmol/L
- CHLORIDE [2]: 98.67 MEQ/L
- CHOLESTEROL [2]: 65.67 mg/dL
- CREATINE PHOSPHOKINASE [2]: 223 u/L
- CREATININE [2]: 0.21 mg/dL
- GLUCOSE [2]: 141.33 mg/dL
- LACTATE DEHYDROGENASE [2]: 112 u/L
- LIPASE [2]: 9.67 u/L
- PHOSPHORUS [2]: 13.63 mg/dL
- POTASSIUM [2]: 6.46 MEQ/L
- SODIUM [2]: 145.77 MEQ/L
- TOTAL BILIRUBIN [2]: 0.1 mg/dL
- TOTAL PROTEIN [2]: 5.97 G/DL
- URIC ACID [2]: 1.43 mg/dL
- ABSOLUTE BASOPHIL [3]: 0 CELLS/uL
- ABSOLUTE EOSINOPHIL [3]: 0 CELLS/uL
- ABSOLUTE LYMPHOCYTE [3]: 12119.33 CELLS/uL
- ABSOLUTE MONOCYTE [3]: 277.33 CELLS/uL
- ABSOLUTE SEGMENTED NEUTROPHIL [3]: 1536.67 CELLS/uL
- BASOPHIL [3]: 0%
- EOSINOPHIL [3]: 0%
- ERYTHROCYTE COUNT [3]: 5.33 x10E6/uL
- HEMATOCRIT [3]: 33.43%
- HEMOGLOBIN [3]: 12.9 G/DL
- LEUKOCYTE COUNT [3]: 13.93 x10E3/uL
- LYMPHOCYTE [3]: 87%
- MEAN CORPUSCULAR HEMOGLOBIN [3]: 24.23 pg
- MEAN CORPUSCULAR HEMOGLOBIN CONCENTRATION [3]: 38.6 G/DL
- MEAN CORPUSCULAR VOLUME [3]: 62.83 fL
- MONOCYTE [3]: 2%
- NEUTROPHIL [3]: 11%
- NUCLEATED RED BLOOD CELLS [3]: 0 /100WBC
- PLATELET COUNT [3]: 1170.67 x10E3/uL
- ALANINE AMINOTRANSFERASE [3]: 123 u/L
- ALBUMIN [3]: 4.1 G/DL
- ALKALINE PHOSPHATASE [3]: 384.67 u/L
- ASPARTATE AMINOTRANSFERASE [3]: 116 u/L
- BLOOD UREA NITROGEN [3]: 16 mg/dL
- CARBON DIOXIDE [3]: 24.67 mmol/L
- CHLORIDE [3]: 102 MEQ/L
- CHOLESTEROL [3]: 71.33 mg/dL
- CREATINE PHOSPHOKINASE [3]: 478.67 u/L
- CREATININE [3]: 0.2 mg/dL
- GLUCOSE [3]: 126.67 mg/dL
- LACTATE DEHYDROGENASE [3]: 279.67 u/L
- LIPASE [3]: 10.67 u/L
- PHOSPHORUS [3]: 11.9 mg/dL
- POTASSIUM [3]: 5.78 MEQ/L
- SODIUM [3]: 145.13 MEQ/L
- TOTAL BILIRUBIN [3]: 0.1 mg/dL
- TOTAL PROTEIN [3]: 5.8 G/DL
- URIC ACID [3]: 1.2 mg/dL
- ABSOLUTE BASOPHIL [4]: 0 CELLS/uL
- ABSOLUTE EOSINOPHIL [4]: 49.33 CELLS/uL
- ABSOLUTE LYMPHOCYTE [4]: 11875.33 CELLS/uL
- ABSOLUTE MONOCYTE [4]: 141.33 CELLS/uL
- ABSOLUTE SEGMENTED NEUTROPHIL [4]: 1867.33 CELLS/uL
- BASOPHIL [4]: 0%
- EOSINOPHIL [4]: 0.33%
- ERYTHROCYTE COUNT [4]: 6 x10E6/uL
- HEMATOCRIT [4]: 36.07%
- HEMOGLOBIN [4]: 13.93 G/DL
- LEUKOCYTE COUNT [4]: 13.93 x10E3/uL
- LYMPHOCYTE [4]: 85.33%
- MEAN CORPUSCULAR HEMOGLOBIN [4]: 23.27 pg
- MEAN CORPUSCULAR HEMOGLOBIN CONCENTRATION [4]: 38.67 G/DL
- MEAN CORPUSCULAR VOLUME [4]: 60.1 fL
- MONOCYTE [4]: 1%
- NEUTROPHIL [4]: 13.33%
- NUCLEATED RED BLOOD CELLS [4]: 0 /100WBC
- PLATELET COUNT [4]: 1140 x10E3/uL
- ALANINE AMINOTRANSFERASE [4]: 337 u/L
- ALBUMIN [4]: 3.63 G/DL
- ALKALINE PHOSPHATASE [4]: 249.33 u/L
- ASPARTATE AMINOTRANSFERASE [4]: 188 u/L
- BLOOD UREA NITROGEN [4]: 13.67 mg/dL
- CARBON DIOXIDE [4]: 25 mmol/L
- CHLORIDE [4]: 105 MEQ/L
- CHOLESTEROL [4]: 25 mg/dL
- CREATINE PHOSPHOKINASE [4]: 1012.33 u/L
- CREATININE [4]: 0.12 mg/dL
- GLUCOSE [4]: 128.67 mg/dL
- LACTATE DEHYDROGENASE [4]: 213 u/L
- LIPASE [4]: 8.67 u/L
- PHOSPHORUS [4]: 10.37 mg/dL
- POTASSIUM [4]: 5.67 MEQ/L
- SODIUM [4]: 144.2 MEQ/L
- TOTAL BILIRUBIN [4]: 0.1 mg/dL
- TOTAL PROTEIN [4]: 5.1 G/DL
- URIC ACID [4]: 1.23 mg/dL
